Experimental data reported in PMC7217877, “N-AS-triggered SPMs are direct regulators of microglia in a model of Alzheimer’s disease” (Nature Communications, 2020).
“And” between values parts separate entries of the source, which are not always exact repeats. Identical values can stand only once.

Experiments:
SphK1 R56A = target: T1, SphK1 R56A (Homo sapiens, UniProt Q9NYA1, R56A); assay: filter binding assay of [3H] acetyl-CoA to SphK1
T1 construct: His (N); made in house
Excerpt: Single point mutations in SphK1 (R56A, R57A, R24A, R185A, D178A, and F192A) and COX2 (S565A, N181A, T564A, and S567A) were generated using the In-Fusion Cloning Kits (Clontech) and ORF cDNA expression plasmids of human SphK1 and COX2 gene (Sino Biological Inc, HG15679-NH and HG12036-NH), according to the manufacturer’s instructions. The forward and reverse primers described in Supplementary Table 4. The SphK1 WT, SphK1 mutants, COX2 WT, and COX2 mutant plasmids were transformed in the One shot TOP 10 competent cell (Invitrogen). The bacteria were grown in Luria-Bertani (LB, Invitrogen) plates supplemented with 50 μg ml^−1 kanamycin (Sigma-Aldrich) at 37 °C. The bacterial cell pellets were resuspended in lysis buffer containing 20 mM sodium phosphate (GE Healthcare), 500 mM NaCl (GE Healthcare), 20 mM imidazole (pH 7.4) (GE Healthcare), 0.2 mg ml^−1 lysozyme (Sigma-Aldrich), 20 μg ml^−1 DNase I (Roche), 1 mM MgCl2 (Sigma-Aldrich), and 1 mM PMSF (Sigma-Aldrich) before being lysed by sonication and clarified by centrifugation at 15,493×g for 10 min. Proteins were purified from the soluble fraction using His-Spin Trap columns (GE Healthcare) and the binding and acetylation assays were performed.
Briefly, SphK1 WT and mutant enzymes (1 mU) were resuspended in 100 μl reaction buffer (20 mM HEPES; pH 7.4, 50 mM NaCl, 10 mM MgCl2, 1 mM EGTA, 0.02% Triton-X100, and 100 μM sphingosine, all from Sigma-Aldrich). […] Briefly, COX2 WT and mutant enzymes (1 mU) were resuspended in 100 μl reaction buffer (20 mM HEPES; pH 7.4, 50 mM NaCl, 10 mM MgCl2, 1 mM EGTA, and 0.02% Triton-X100, all from Sigma-Aldrich). Reactions were initiated by adding [^14C] N-AS (1–200 μM (0.1–20 μCi), ARC UK Ltd, ARC-1024) and incubated at 37 °C for 1 h. The reactions were terminated by adding 100 μl of ice-cold reaction buffer containing 5 mM cold N-AS and immediately filtered through P30 filtermat (Perkin-Elmer), followed by five washes.
The binding velocity was plotted and the Kcat and KM values were calculated from the Michaelis-Menten analysis using the Sigma-plot program (ver 10.0, Systat software Inc.).

APP/PS1 mice [1] = assay: flow cytometry of brain microglia polarity (CD86/CD206, Fig 4e); type: in vivo, mouse; conditions: APP/PS1 + N-AS, individual values
Protocol: (§1) Transgenic mouse lines over-expressing the hAPP695swe (APP) and presenilin-1M146V (PS1) mutations were originated from GlaxoSmithKline (Harlow, UK)[32] and maintained as described previously. We purchased 5×FAD mice from Jackson Labs (Stock number. 34840-JAX). Because APP/PS1 and 5xFAD mice show sex differences in disease progression, we used only male mice. To examine possible therapeutic effect of N-AS and aspirin in APP/PS1 mice, the N-AS (30 mg kg^−1, Sigma-Aldrich, 01912) was injected daily s.c. for 8 weeks to 7-months-old APP/PS1 mice until the age of 9 months, and aspirin (2 mg kg^−1, Sigma-Aldrich, A5376)[33] was administrated orally to 7-months-old APP/PS1 mice for 8 weeks. Also, to confirm possible therapeutic efficacy of N-AS in 5×FAD, the N-AS (30 mg kg^−1, Sigma-Aldrich, 01912) was injected daily s.c. for 4 weeks to 3-months-old 5×FAD mice until the age of 4 months. Block randomization method was used to allocate the animals to experimental groups. To eliminate the bias, we were blinded in experimental progress such as data collection and data analysis. Mice were housed at temperature of 22 °C and a 12 h day/12 h night cycle with free access to tap water and food pellets. All protocols were approved by the Kyungpook National University Institutional Animal Care and Use Committee.
Brain microglia polarity and immune cells in brain and blood were analyzed by flow cytometry. Cells from WT, APP/PS1, and APP/PS1 treated with N-AS mice brain were prepared as previously described with minor modifications. Brains of WT, APP/PS1, and APP/PS1 treated with N-AS mice were dissected and immediately transferred in ice-cold HBSS (Gibco). After gentle mincing, the brain was digested in a HBSS solution containing collagenase P (0.2 mg ml^−1, Roche), dispase II (0.8 mg ml^−1, Roche), DNase I (0.01 mg ml^−1, Roche), and collagenase A (0.3 mg ml^−1, Roche) at 37 °C for 1 h under gentle rocking. […] Red blood cells were lysed once at 4 °C for 10 min in 0.15 M NH4Cl ([…] Technologies), washed once with PBS (Gibco), and counted using cell counter (Logos biosystems). […]

APP/PS1 mice [2] = assay: flow cytometry of blood immune cells (Supplementary Fig 5e-i); type: in vivo, mouse; set-up: CD11b+ CD115+ Ly6Chi / CD11b+ CD115+ Ly6Clow / CD115low Ly6Chi Ly6Ghi / CD4+ T cell / B220+ B cell: unit not given here
Protocol: as §1
Brain microglia polarity and immune cells in brain and blood were analyzed by flow cytometry. Cells from WT, APP/PS1, and APP/PS1 treated with N-AS mice brain were prepared as previously described with minor modifications. Brains of WT, APP/PS1, and APP/PS1 treated with N-AS mice were dissected and immediately transferred in ice-cold HBSS (Gibco). After gentle mincing, the brain was digested in a HBSS solution containing collagenase P (0.2 mg ml^−1, Roche), dispase II (0.8 mg ml^−1, Roche), DNase I (0.01 mg ml^−1, Roche), and collagenase A (0.3 mg ml^−1, Roche) at 37 °C for 1 h under gentle rocking. Digestion was stopped by adding FBS (Gibco) on ice. The supernatants were centrifuged at 250×g for 10 min at 4 °C. The pellet was resuspended in 25% BSA (Gibco)/PBS (Gibco) for myelin removal. Following a centrifugation step at 3000×g for 30 min at 4 °C, the myelin containing supernatant was discarded. The cell pellets were then resuspended in 1 ml of HBSS and filtered through a 40 μm mesh, followed by a washing step in HBSS. The cell pellets were resuspended in 1 ml of red blood cell lysis buffer (BD Biosciences) and incubated at RT for 10 min for lysis of erythrocytes. Subsequently, 2 ml of MACs buffer (Miltenyl Biotec, 130-091-222) was added and centrifuged at 250×g for 10 min at 4 °C. Cells from WT, APP/PS1, and APP/PS1 treated with N-AS mice blood were prepared as previously described with minor modifications. Blood was collected in sodium-heparin tube (BD, 367871) by cardiac puncture. Red blood cells were lysed once at 4 °C for 10 min in 0.15 M NH4Cl ([…] Technologies), washed once with PBS (Gibco), and counted using cell counter (Logos biosystems). […]

T1 sequence (Q9NYA1 whole entry R56A): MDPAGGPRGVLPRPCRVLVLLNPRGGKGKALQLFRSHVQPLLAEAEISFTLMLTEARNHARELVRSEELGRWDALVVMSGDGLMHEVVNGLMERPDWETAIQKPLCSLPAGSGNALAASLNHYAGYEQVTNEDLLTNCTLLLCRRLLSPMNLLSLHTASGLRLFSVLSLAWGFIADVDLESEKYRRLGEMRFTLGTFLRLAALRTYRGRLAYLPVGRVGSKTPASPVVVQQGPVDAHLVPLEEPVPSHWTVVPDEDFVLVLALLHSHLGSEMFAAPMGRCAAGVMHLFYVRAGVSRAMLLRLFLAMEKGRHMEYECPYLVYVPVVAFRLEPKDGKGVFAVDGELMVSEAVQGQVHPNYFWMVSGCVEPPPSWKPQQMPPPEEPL

Row | Compound | Kcat of acetyl-CoA binding to SphK1 (SphK1 R56A) | Km (SphK1 R56A; read-out: KM of acetyl-CoA binding to SphK1) | calculated percentage of CD86+ CD206+ cells (APP/PS1 mice [1]) | calculated percentage of CD86+ CD206- (pro-inflammatory microglia) cells (APP/PS1 mice [1]) | calculated percentage of CD86- CD206+ (anti-inflammatory microglia) cells (APP/PS1 mice [1]) | anti-inflammatory monocytes in blood (APP/PS1 mice [2]; N-AS vs vehicle APP/PS1) | macrophages and pro-inflammatory monocytes in blood (APP/PS1 mice [2]; N-AS vs vehicle APP/PS1) | neutrophils in blood (APP/PS1 mice [2]; N-AS vs vehicle APP/PS1) | Lin- CD11b+ F4/80hi (APP/PS1 mice [2]; blood, APP/PS1 + N-AS, sFig 5e) | CD11b+ CD115+ Ly6Chi (APP/PS1 mice [2]; blood, APP/PS1 + N-AS, sFig 5f) | CD11b+ CD115+ Ly6Clow (APP/PS1 mice [2]; blood, APP/PS1 + N-AS, sFig 5f) | CD115low Ly6Chi Ly6Ghi (APP/PS1 mice [2]; blood, APP/PS1 + N-AS, sFig 5g) | B220+ B cell (APP/PS1 mice [2]; blood, APP/PS1 + N-AS, sFig 5i) | CD4+ T cell (APP/PS1 mice [2]; blood, APP/PS1 + N-AS, sFig 5h)
1 | CC(=O)SCCNC(=O)CCNC(=O)[C@H](O)C(C)(C)COP(=O)(O)OP(=O)(O)OC[C@H]1O[C@@H](n2cnc3c(N)ncnc32)[C@H](O)[C@@H]1OP(=O)(O)O [Acetyl-CoA, acetyl-CoA] | 0.000203 s⁻¹ | 40.4 µM |  |  |  |  |  |  |  |  |  |  |  | 
2 | CCCCCCCCCCCCC/C=C/[C@@H](O)[C@H](CO)NC(C)=O [N-AS, N-((2S,3R,E)-1,3-Dihydroxyoctadec-4-en-2-yl)acetamide] |  |  | 1.29 and 0.77 and 0.87 and 1.7 and 1.28 and 1.46 | 0.012 and 0.071 and 0.011 and 0.023 and 0.034 and 0.025 | 3.06 and 1.43 and 2.01 and 2.77 and 2.35 and 2.46 | increased anti-inflammatory monocytes | decreased macrophages and pro-inflammatory monocytes | neutrophils showed no differences between the groups | 0.31 and 0.35 and 0.29 and 0.33 and 0.3 | 0.3325 and 0.21 and 0.4 and 0.265 and 0.235 and 0.305 | 0.32 and 0.295 and 0.285 and 0.3075 | 3.9 and 4.5 and 3.15 and 4.65 and 3 and 4.1 | 5.915 and 5.6 and 6.23 and 6.0725 | 3.42 and 3.21 and 3.63 and 3.525
